“Also recorded” adds a separate entry of the source.

These results are taken from patent publication US20260067245A1, “METHODS AND COMPOSITIONS FOR TUMOR THERAPY” (MEMORIAL SLOAN KETTERING CANCER CENTER, priority 2022, published 2026).

In the assay the test system is B16F10 cells. In words: mouse bilateral tumor model, B16 murine melanoma (one tumor injected, contralateral not injected). It is filed as in vivo.

Description: By injecting only one of two tumors throughout the course of the experiment it is possible to separate the effect of the injected tumor from the “abscopal” effect on the distant non-injected tumor. Once treatment begins, tumors are measured twice weekly for at least 90 days.
Also, unless indicated otherwise, controls were treated with isotype control antibodies and vehicle only. Furthermore, unless indicated otherwise, all experiments were performed using the mouse bilateral tumor model described below and summarized in FIG. 2.
The animals used had large tumors in two opposite flanks. One tumor was injected while the second remained non-injected (FIG. 2), allowing separate analysis of the effect at the injected tumor from the so-called ‘abscopal’ effect at the non-injected tumor, in order to understand how this treatment could benefit patients with metastatic cancer. […] C57BL/6 mice were initially implanted with 5×10^5 syngeneic B16F10 cells intra-dermally in bilateral flanks. 8 days post tumor cell implantation, when bilateral tumors measured ˜0.5 cm, intratumoral (IT) treatment with various test agents was initiated together with intraperitoneal (IP) anti-PD-1 mAb. Treatment was administered twice weekly for 4 weeks into one of the bilateral tumors. The contralateral tumor remained un-injected for the duration of the experiment.
8 days post tumor cell implantation, when bilateral tumors measured ˜0.5 cm, intratumoral (IT) treatment with agents selected to activate APCs was initiated together with intraperitoneal (IP) anti-PD-1 mAb. Treatment was administered twice weekly for 4 weeks into one of the bilateral tumors. The contralateral tumor remained un-injected for the duration of the experiment (see FIG. 2 for schematic of experimental protocol).
These nanoparticles were administered to animals receiving 250 μg intraperitoneal anti-PD-1 (RMP1-14) concurrently. Non-formulated control animals received mixtures of MPL (5 μg) and FGK45 (20 μg) injected intratumorally with RMP1-14 delivered intraperitoneally. Anti-PD-1-only control animals received 250 μg of intraperitoneal RMP1-14 alone. Isotype/vehicle control animals received isotype control mAbs and vehicle corresponding to the nanoparticle-treated group.

On to `O=C1[O][Pt]2([NH][C@@H]3CCCC[C@H]3[NH]2)[O]C1=O` [oxaliplatin], for which the survival entry (concurrent systemic (IP) addition to intratumoral MPL, anti-IL10R and anti-CD40 (41040)) is listed as “increases survival”.

Take PolyIC: the “activity when substituted for MPL in the regimen” value (FIG. 35B, bilateral tumor model) was “could be substituted for MPL; also recorded: can be substituted for MPL, albeit possibly with slightly reduced activity”.
